Test results taken from ChEMBL document CHEMBL1130033, “17 beta-(3-furyl)-5 beta-androstane-3 beta, 14 beta, 17 alpha-triol (PST 2238). A very potent antihypertensive agent with a novel mechanism of action” (J Med Chem, 1997).

Target: Sodium/potassium-transporting ATPase
Assay: Ability to displace [3H]ouabain from Na+/K+ ATPase in dog kidney.
Format: protein-complex assay, Canis lupus familiaris

With `C[C@]12CC[C@H](O)C[C@H]1CC[C@@H]1[C@@H]2CC[C@]2(C)[C@@](O)(c3ccoc3)CC[C@]12O` [ROSTAFUROXIN] the IC50 was 1500 nM.
